Experimental data taken from the supplement of paper PMC10883282.
± gives the standard deviation of the averaged measurements.

Columns and labels:
Experiment in all cases: relative viability vs DMSO control (72 h) (fraction); higher = more viable cells
[1] = system: SW1353
Procedure, shortened: (§1)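 Sarcoma cell lines were seeded in 384-well plates at densities chosen for 80–90% confluence, then 24 h later given 2.5 µl of serially diluted compound drawn from source plates spanning 10 mM to 0.0002 mM. They were held 72 h at 37 °C, 5% CO2, with 0.1% DMSO vehicle and a 5 µM positive control included. Relative viability was read with ATPLite as percent growth and averaged over up to triplicate wells. Rescaling placed full at 1 and none at 0.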

[2] = system: HT1080
Procedure, shortened: as §1

[3] = system: KHOS-NP
Procedure, shortened: as §1

[4] = system: A204
Procedure, shortened: as §1

[5] = system: SW872
Procedure, shortened: as §1

[6] = system: SYO-1
Procedure, shortened: as §1

[7] = system: G401
Procedure, shortened: as §1

[8] = system: VA-ES-BJ
Procedure, shortened: as §1

[9] = system: SW684
Procedure, shortened: as §1

[10] = system: MES-SA
Procedure, shortened: as §1

[11] = system: SK-LMS-1
Procedure, shortened: as §1

[12] = system: HS729
Procedure, shortened: as §1

Cc1c(F)cc(C(=O)NC2CC2)cc1-c1ccc(C(=O)NCC(C)(C)C)cn1 [Losmapimod]
Conditions	relative viability
[1], 0.00017 µM	1.06 ± 0.051
[1], 0.00051 µM	1.06 ± 0.025
[1], 0.00152 µM	1.08 ± 0.036
[1], 0.00457 µM	1.07 ± 0.035
[1], 0.01372 µM	1.09 ± 0.031
[1], 0.04115 µM	1.08 ± 0.02
[1], 0.1235 µM	1.08 ± 0.014
[1], 0.3704 µM	1.09 ± 0.018
[1], 1.111 µM	1.079 ± 0.0044
[1], 3.333 µM	1.07 ± 0.063
[1], 10 µM	0.959 ± 0.14
[2], 0.00017 µM	1.09 ± 0.049
[2], 0.00051 µM	1.09 ± 0.012
[2], 0.00152 µM	1.12 ± 0.022
[2], 0.00457 µM	1.11 ± 0.021
[2], 0.01372 µM	1.1 ± 0.017
[2], 0.04115 µM	1.149 ± 0.0082
[2], 0.1235 µM	1.16 ± 0.014
[2], 0.3704 µM	1.13 ± 0.018
[2], 1.111 µM	1.11 ± 0.023
[2], 3.333 µM	1.09 ± 0.024
[2], 10 µM	1.11 ± 0.023
[3], 0.00017 µM	1.08 ± 0.018
[3], 0.00051 µM	1.1 ± 0.014
[3], 0.00152 µM	1.09 ± 0.015
[3], 0.00457 µM	1.1 ± 0.011
[3], 0.01372 µM	1.11 ± 0.012
[3], 0.04115 µM	1.12 ± 0.017
[3], 0.1235 µM	1.097 ± 0.0082
[3], 0.3704 µM	1.1 ± 0.013
[3], 1.111 µM	1.097 ± 0.0074
[3], 3.333 µM	1.081 ± 0.0022
[3], 10 µM	1.1 ± 0.018
[4], 0.00017 µM	1.06 ± 0.03
[4], 0.00051 µM	1.07 ± 0.022
[4], 0.00152 µM	1.07 ± 0.024
[4], 0.00457 µM	1.06 ± 0.02
[4], 0.01372 µM	1.1 ± 0.016
[4], 0.04115 µM	1.07 ± 0.018
[4], 0.1235 µM	1.07 ± 0.036
[4], 0.3704 µM	1.03 ± 0.028
[4], 1.111 µM	1.03 ± 0.011
[4], 3.333 µM	0.992 ± 0.029
[4], 10 µM	0.901 ± 0.045
[5], 0.00017 µM	1.04 ± 0.02
[5], 0.00051 µM	1.08 ± 0.021
[5], 0.00152 µM	1.07 ± 0.021
[5], 0.00457 µM	1.05 ± 0.017
[5], 0.01372 µM	1.06 ± 0.022
[5], 0.04115 µM	1.04 ± 0.028
[5], 0.1235 µM	1.06 ± 0.012
[5], 0.3704 µM	1.04 ± 0.022
[5], 1.111 µM	1.05 ± 0.044
[5], 3.333 µM	1.04 ± 0.032
[5], 10 µM	1.04 ± 0.012
[6], 0.00017 µM	0.993 ± 0.02
[6], 0.00051 µM	0.992 ± 0.028
[6], 0.00152 µM	0.975 ± 0.0099
[6], 0.00457 µM	0.975 ± 0.012
[6], 0.01372 µM	0.954 ± 0.028
[6], 0.04115 µM	0.957 ± 0.05
[6], 0.1235 µM	0.915 ± 0.024
[6], 0.3704 µM	0.865 ± 0.0094
[6], 1.111 µM	0.852 ± 0.034
[6], 3.333 µM	0.813 ± 0.017
[6], 10 µM	0.812 ± 0.069
[7], 0.00017 µM	1.06 ± 0.017
[7], 0.00051 µM	1.03 ± 0.049
[7], 0.00152 µM	1.05 ± 0.037
[7], 0.00457 µM	1.074 ± 0.0083
[7], 0.01372 µM	1.03 ± 0.054
[7], 0.04115 µM	1.01 ± 0.032
[7], 0.1235 µM	0.981 ± 0.027
[7], 0.3704 µM	0.964 ± 0.012
[7], 1.111 µM	0.955 ± 0.013
[7], 3.333 µM	0.904 ± 0.019
[7], 10 µM	0.887 ± 0.021
[8], 0.00017 µM	1.11 ± 0.023
[8], 0.00051 µM	1.1 ± 0.026
[8], 0.00152 µM	1.07 ± 0.061
[8], 0.00457 µM	1.07 ± 0.055
[8], 0.01372 µM	1.07 ± 0.048
[8], 0.04115 µM	1.06 ± 0.046
[8], 0.1235 µM	0.988 ± 0.045
[8], 0.3704 µM	1.03 ± 0.017
[8], 1.111 µM	1.03 ± 0.063
[8], 3.333 µM	1.02 ± 0.068
[8], 10 µM	1 ± 0.032
[9], 0.00017 µM	1.11 ± 0.053
[9], 0.00051 µM	1.2 ± 0.045
[9], 0.00152 µM	1.24 ± 0.027
[9], 0.00457 µM	1.21 ± 0.035
[9], 0.01372 µM	1.18 ± 0.041
[9], 0.04115 µM	1.15 ± 0.067
[9], 0.1235 µM	1.13 ± 0.089
[9], 0.3704 µM	1.25 ± 0.015
[9], 1.111 µM	1.21 ± 0.05
[9], 3.333 µM	1.18 ± 0.06
[9], 10 µM	1.19 ± 0.045
[10], 0.00017 µM	0.997 ± 0.011
[10], 0.00051 µM	0.9963 ± 0.0047
[10], 0.00152 µM	0.967 ± 0.022
[10], 0.00457 µM	0.951 ± 0.023
[10], 0.01372 µM	0.96 ± 0.017
[10], 0.04115 µM	0.935 ± 0.044
[10], 0.1235 µM	0.9396 ± 0.0087
[10], 0.3704 µM	0.928 ± 0.022
[10], 1.111 µM	0.8915 ± 0.0037
[10], 3.333 µM	0.866 ± 0.03
[10], 10 µM	0.879 ± 0.03
[11], 0.00017 µM	1.02 ± 0.024
[11], 0.00051 µM	1.02 ± 0.031
[11], 0.00152 µM	1.01 ± 0.068
[11], 0.00457 µM	1 ± 0.041
[11], 0.01372 µM	0.995 ± 0.044
[11], 0.04115 µM	1.02 ± 0.06
[11], 0.1235 µM	1.005 ± 0.0088
[11], 0.3704 µM	0.978 ± 0.034
[11], 1.111 µM	0.981 ± 0.072
[11], 3.333 µM	0.967 ± 0.035
[11], 10 µM	0.946 ± 0.021
[12], 0.00017 µM	1.09 ± 0.057
[12], 0.00051 µM	1.04 ± 0.097
[12], 0.00152 µM	1.06 ± 0.066
[12], 0.00457 µM	1.02 ± 0.13
[12], 0.01372 µM	0.972 ± 0.067
[12], 0.04115 µM	0.954 ± 0.063
[12], 0.1235 µM	0.903 ± 0.058
[12], 0.3704 µM	0.848 ± 0.023
[12], 1.111 µM	0.818 ± 0.049
[12], 3.333 µM	0.805 ± 0.041
[12], 10 µM	0.809 ± 0.016
